# Measurements: patent US12606520B2, “Calpain-2 inhibitor compounds and methods of treatment” (WESTERN UNIVERSITY OF HEALTH SCIENCES, priority 2020, dated 2026)
# Read-outs that look alike come from different tables or passages of the source.
# Assays:
# Type in all cases: in vivo
# calpain-1 = target: T1, calpain-1 (Rattus norvegicus, UniProt P97571); test: Calpain-1 activity in brain after TBI in rats; details: 1 mg/kg i.p. at 1 h and 8 h after TBI, 24 h after TBI
# T1 construct: from tissue; host or cells: rat brain after TBI
# T1 sequence (P97571 1-713): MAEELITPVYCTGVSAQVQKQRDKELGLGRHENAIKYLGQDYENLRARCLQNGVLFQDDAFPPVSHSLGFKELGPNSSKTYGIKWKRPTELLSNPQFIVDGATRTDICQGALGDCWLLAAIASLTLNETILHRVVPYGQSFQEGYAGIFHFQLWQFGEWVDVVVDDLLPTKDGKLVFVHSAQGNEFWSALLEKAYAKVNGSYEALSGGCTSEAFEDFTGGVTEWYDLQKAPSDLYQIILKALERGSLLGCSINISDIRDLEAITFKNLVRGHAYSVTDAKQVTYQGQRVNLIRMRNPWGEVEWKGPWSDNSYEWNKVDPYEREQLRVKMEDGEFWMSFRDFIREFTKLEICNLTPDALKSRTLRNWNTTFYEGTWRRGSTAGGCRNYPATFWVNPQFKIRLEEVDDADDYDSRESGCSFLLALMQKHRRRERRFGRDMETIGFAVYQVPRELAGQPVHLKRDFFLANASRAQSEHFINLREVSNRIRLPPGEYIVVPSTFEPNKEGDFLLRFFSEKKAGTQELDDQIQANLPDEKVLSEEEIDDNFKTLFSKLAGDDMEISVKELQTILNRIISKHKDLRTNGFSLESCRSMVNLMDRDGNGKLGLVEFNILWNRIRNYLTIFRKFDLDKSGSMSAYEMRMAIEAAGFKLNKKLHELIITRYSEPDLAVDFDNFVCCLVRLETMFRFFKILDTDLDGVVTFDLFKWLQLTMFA
# T1 sequence (Q64537 1-270 partner): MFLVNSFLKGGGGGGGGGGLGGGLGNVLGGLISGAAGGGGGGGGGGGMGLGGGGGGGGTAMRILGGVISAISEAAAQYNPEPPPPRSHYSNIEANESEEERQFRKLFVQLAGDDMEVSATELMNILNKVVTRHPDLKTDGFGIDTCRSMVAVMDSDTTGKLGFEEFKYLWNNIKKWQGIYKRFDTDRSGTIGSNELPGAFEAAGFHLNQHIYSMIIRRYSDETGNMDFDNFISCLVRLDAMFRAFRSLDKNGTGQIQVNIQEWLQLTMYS
# Experimental: We also performed the same model of TBI in male and female mice and in male and female rats. In all cases, NA184 was injected i.p. at 1 mg/kg. For the rat experiments, NA184 was injected twice at 1 h and 8 h after TBI. Animals were sacrificed 24 h after TBI and calpain activity was assayed in brain and cell death was analyzed in cortex. […] In addition, there was a highly significant correlation between calpain-2 activity and cell death in rats (FIG. 23). R^2 was 0.61 and p<0.005.
# TUNEL-positive cells = test: TUNEL staining of brain 24 h after TBI in WT mice
# Experimental: Quantification of TUNEL staining 24 h after TBI plus i.p. injection of NA112 at 0.1 or 1.0 mg/kg. Total numbers of TUNEL-positive cells in 3 coronal sections (Bregma 0.50, −0.58, −1.58 mm) of each brain were counted and averaged. Results are means S.E.M. of 3 animals. * p<0.05 vs Vehicle. One-way ANOVA followed by Bonferroni test.
# Vehicle (control liposomes) or 0.1 or 1 mg/kg of NA112 dissolved in liposomal formulation was injected 1 h after TBI in WT mice. Animals were sacrificed 24 h later and brains were stained with TUNEL staining to analyze the extent of cell death.
# The number of TUNEL-positive cells in images similar to those shown in FIG. 12 was quantified (FIG. 13). Results in FIG. 13 are Means±S.E.M. of 3 different animals.
# Quantification of TUNEL staining 24 h after TBI plus i.p. injection of WT mice with NA184 at indicated doses 1 h after TBI. Total numbers of TUNEL-positive cells in 3 coronal sections (Bregma 0.50, −0.58, −1.58 mm) of each brain were counted and averaged. Results are means±S.E.M. of 3-6 animals. * p<0.05, ** p<0.01, vs Vehicle. One-way ANOVA followed by Bonferroni test (FIG. 20).
# [1] = PK in mice after iv injection of liposomal NA112: brain; details: mouse; for concentration at 1 min / concentration at 5 min / concentration at 0.25 h / concentration at 0.5 hr / concentration at 1 hr / concentration at 2 h / concentration at 4 h / concentration at 8 h / concentration at 16 h: iv, 10 mg/kg, mice iv 10 mg/kg liposomes; for concentration at 1 min: 0.0167 hr; for concentration at 5 min: 0.0833 hr
# Experimental: NA112 was prepared in liposomes at a concentration of 1.5 mg/ml. Mice were injected in the tail vein with 200 μl of NA112 in liposomes (corresponding to a dose of 10 mg/kg) and were sacrificed at the following time-points: 1, 5, 15, 30 min, 1, 2, 4, 8, 16 and 24 h. Blood was collected and plasma rapidly prepared by centrifugation. Brains were also collected. NA112 in plasma and in brain homogenates was assayed with LC/Ms and the sensitivity of the assay was 1 ng/ml. Experiments were performed in duplicate (A1 and A2 in Table 3). Results were averaged for preparing the figure and calculating the half-life of NA112 in plasma and in brain.
# Data from table 4 are plotted as a function of time. While the curve is not easily fitted with a 2-compartment model, the slower component appears to have a half-life of about 3 h.
# [2] = read-out: Brain concentration A1
# [3] = read-out: Brain concentration A2
# [4] = read-out: Brain concentration Mean
compound,measurement,setting,value
"CCC(NC(=O)[C@H](CC(C)C)NC(=O)NCc1ccccc1)C(=O)C(=O)NCc1cccc(Cl)c1OC (stereo partly drawn) [NA184, (2S)-2-(3-benzylureido)-N-(1-((3-chloro-2-methoxybenzyl)amino)-1,2-dioxopentan-3-yl)-4-methylpentanamide]","Calpain-1 inhibition in brain, male and female rats",calpain-1,not calpain-1
same,ED50,"TUNEL-positive cells; Mus musculus, ip, i.p. 1 h after TBI, DMSO solution, TUNEL 24 h after TBI",~0.13 mg/kg
"CCC(NC(=O)[C@H](CC(C)C)NC(=O)NCc1ccccc1)C(=O)C(=O)NCc1cc(OC)cc(OC)c1 (mixture of isomers) [NA112, (2S)-2-(3-benzylureido)-N-(1-((3,5-dimethoxybenzyl)amino)-1,2-dioxopentan-3-yl)-4-methylpentanamide]",concentration at 1 min,[1]; [2],520 ng/mL
same,concentration at 1 min,[1]; [3],305 ng/mL
same,concentration at 1 min,[1]; [4],412 ng/mL
same,concentration at 5 min,[1]; [2],168 ng/mL
same,concentration at 5 min,[1]; [3],129 ng/mL
same,concentration at 5 min,[1]; [4],149 ng/mL
same,concentration at 0.25 h,[1]; [2],106 ng/mL
same,concentration at 0.25 h,[1]; [3],62.3 ng/mL
same,concentration at 0.25 h,[1]; [4],84.4 ng/mL
same,concentration at 0.5 hr,[1]; [2],60.6 ng/mL
same,concentration at 0.5 hr,[1]; [3],63.4 ng/mL
same,concentration at 0.5 hr,[1]; [4],62 ng/mL
same,concentration at 1 hr,[1]; [2],45.6 ng/mL
same,concentration at 1 hr,[1]; [3],48.4 ng/mL
same,concentration at 1 hr,[1]; [4],47 ng/mL
same,concentration at 2 h,[1]; [2],25.9 ng/mL
same,concentration at 2 h,[1]; [3],30.9 ng/mL
same,concentration at 2 h,[1]; [4],28.4 ng/mL
same,concentration at 4 h,[1]; [2],14 ng/mL
same,concentration at 4 h,[1]; [3],21.3 ng/mL
same,concentration at 4 h,[1]; [4],17.6 ng/mL
same,concentration at 8 h,[1]; [2],19.5 ng/mL
same,concentration at 8 h,[1]; [3],15.4 ng/mL
same,concentration at 8 h,[1]; [4],17.4 ng/mL
same,concentration at 16 h,[1]; [2],6.65 ng/mL
same,concentration at 16 h,[1]; [3],9.41 ng/mL
same,concentration at 16 h,[1]; [4],8.03 ng/mL
same,half-life,"[1]; mice, iv 10 mg/kg in liposomes, read-out: Half-life of slower component in brain (converted)",~3 h
same,TUNEL staining,"TUNEL-positive cells; liposomal formulation, 0.1 or 1 mg/kg 1 h after TBI, 24 h later",decrease in TUNEL staining
